The experiment relates to normal human bronchial epithelial cells (NHBE). The experiment in a line: Cumulative dose kinetic responses of intracellular Ca++, Cl- and cell membrane potential (simultaneous three-fluorophore photon counting: Fluo-3, di-MEQ, RH421). In kind it is cell-based. The settings on record: for intracellular Ca++ response / intracellular Cl- response / membrane potential response: cumulative dosing. The protocol: Normal human bronchial/tracheal epithelial cells (NHBE, Clonetics) were cultured in T-25 cm^2 flasks at 37° C., 5% CO2 using Bronchial/Tracheal Epithelial Cell Growth Medium containing Retinoic Acid (BEGM, w/RA, Clonetics). When the NHBE cells in the T-25 flasks reached 60%-80% confluency, the cells were passaged using a seeding density of 3500 cells/cm^2. A portion of the cells was passaged in T-25 flasks again while the remaining cells were seeded on UV-exposed Vitrogen (pH balanced 1:1 BEGM to Vitrogen) coated 4-well cover glass chambers (LabTek II). NHBE cells normally attached to the collagen-coated cover glass chamber within 24 hrs. Prior to these cells reaching 60% confluency, they were used for all the experiments described below. Cells used in all the experiments were either 2nd or 3rd passage cells maintained in Bronchial/Tracheal Epithelial Cell Growth Medium with Retinoic Acid (BEGM, w/RA, Clonetics).
The following procedures for loading the cells with fluorophore were employed. Balanced Hank's (BH) solution without phenol red was used as the medium for all the fluorophore preparations and cell washings unless stated otherwise. Fluo-3 (a Ca^++ indicator), di-MEQ (a Cl^− indicator) and RH421 (a cell membrane potential indicator) were loaded into cells sequentially at room temperature. Cells were first incubated with 8 μM Fluo-3 solution for 60 minutes, followed by incubating with 50 μM di-MEQ for 5 minutes and then finally with 10 μM RH421 for 5 minutes. Extraneous dyes were washed with BH solution between each fluorophore loading procedure. The cells were allowed to stabilize in BEGM for a minimum of 15 minutes at room temperature prior to the beginning of each experiment.
Experiments were performed at room temperature. All tested agents were prepared in Balanced Hank's Solution. One of the wells of the cover glass chamber was placed on the stage of the inverted microscope and the cells loaded with the fluorophores were visually focused with the violet, green and orange emitted light from the cells approximately in the same focal plane. At a sampling frequency of 100 Hz, cells with the following photon counts were chosen for the study: 20 to 50 counts per channel (cpc) for Ca^++ fluorescence, 70 to 200 cpc for Cl^− fluorescence, and 20 to 50 cpc for cell membrane potential fluorescence. After establishing a 2 minute baseline, increasing doses of the agent of interest were added topically to the wells 2 minutes apart. At the end of each experiment, a toxic dose of the agent of interest was added to the sample to either shrink or swell the cells beyond their normal cell volume regulatory range. This caused the fluorescence signals of each of these fluorophores to reach either maximum or minimum values. […] Background fluorescence was recorded using a cell free area of the same well. If the signal to background ratio was not higher than a factor of 10, the experiments were also discarded.

[1] abbreviates: 25 μM to 500 μM cumulative dosing, general statement.
Setting [2] is: Glibenclamide concentrations below 500 μM.

SMILES strings stand for the structures.

In the case of `COc1ccc(Cl)cc1C(=O)NCCc1ccc(S(=O)(=O)NC(=O)NC2CCCCC2)cc1` [Glibenclamide], under setting [1], the “[Cl-]i (MEQ fluorescence inversely proportional to [Cl-]i), overall effect” value is given as “increased” and the “cell membrane polarization, overall effect” value is recorded as “hyperpolarized”. Besides, under setting [2], the “intracellular Ca++ response” value is given as “little affected”, the “intracellular Cl- response” value is recorded as “declines as Glibenclamide concentration increases” and the membrane potential response entry is “little affected”. Also, where the note is “concentration 500 μM”, the “intracellular Ca++ response” value is reported as “rapid increase”, the “intracellular Cl- response” value is reported as “simultaneous drop” and the membrane potential response result is on record as “simultaneous increase”.

For `O=c1ccn([C@@H]2O[C@H](COP(=O)(O)OP(=O)(O)OP(=O)(O)O)[C@@H](O)[C@H]2O)c(=O)[nH]1` [UTP, uridine triphosphate], where the note is “concentration 0.1 mM”, the “intracellular Ca++ response” value is “rapid increase”, the “intracellular Cl- response” value is recorded as “essentially no changes” and the membrane potential response result is recorded as “essentially no changes”. Moreover, where the note is “concentration 1 mM”, the “intracellular Ca++ response” value is “rapid increase”, the “intracellular Cl- response” value is recorded as “essentially no changes” and the membrane potential response entry is given as “essentially no changes”.
